From PubChem BioAssay (NCI)
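Cells were grown in 96-well plates and exposed to each compound for 48 hours at five concentrations; endpoints were interpolated linearly between bracketing concentrations, or set to the highest concentration if not reached. GI50 marks 50% less growth. TGI: concentration producing complete growth inhibition.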

Assays:
Test in all cases: growth of human tumour cells (NCI), 48 h
PC-3 prostate = test system: PC-3 prostate
COLO 205 colon = test system: COLO 205 colon
OVCAR-4 ovarian = test system: OVCAR-4 ovarian
UACC-257 melanoma = test system: UACC-257 melanoma
RPMI-8226 leukemia = test system: RPMI-8226 leukemia
UO-31 renal = test system: UO-31 renal
NCI-H460 lung = test system: NCI-H460 lung
K-562 leukemia = test system: K-562 leukemia

| SMILES | GI50 (PC-3 prostate) [µM] | TGI (PC-3 prostate) [µM] | GI50 (COLO 205 colon) [µM] | TGI (COLO 205 colon) [µM] | GI50 (OVCAR-4 ovarian) [µM] | TGI (OVCAR-4 ovarian) [µM] | GI50 (UACC-257 melanoma) [µM] | TGI (UACC-257 melanoma) [µM] | GI50 (RPMI-8226 leukemia) [µM] | TGI (RPMI-8226 leukemia) [µM] | GI50 (UO-31 renal) [µM] | TGI (UO-31 renal) [µM] | GI50 (NCI-H460 lung) [µM] | TGI (NCI-H460 lung) [µM] | GI50 (K-562 leukemia) [µM] | TGI (K-562 leukemia) [µM] |
| --- | --- | --- | --- | --- | --- | --- | --- | --- | --- | --- | --- | --- | --- | --- | --- | --- |
| Cc1ccc(-c2cc(C(Cl)Cl)on2)cc1 | 49.9 | > 100 | 35.4 | > 100 | 77.6 | > 100 | 67.7 | > 100 | 33.8 | > 100 | 49.5 | > 100 | 49.1 | > 100 | – | – |
| N#CC1=C(N)NC(=S)C(C#N)C12Nc1ccccc1S2 (centres undefined) | 41 | > 100 | 25.5 | 60.6 | – | – | 19.6 | 35.4 | 61.6 | > 100 | 17.6 | 38.5 | 16.7 | > 100 | 48.2 | > 100 |
| CCCCCCCCCCCCNC(=O)[C@H]1CSC(c2ccsc2)N1 (some centres undefined) | 0.837 | 1.56 | 7.95 | 15.9 | 0.911 | 1.73 | 0.946 | 1.7 | 1.72 | 5.69 | 0.826 | 1.51 | 0.986 | 1.84 | 1.02 | 2.04 |
| COc1ccc(-c2nn(-c3cccc(Cl)c3)cc2/C=C2\C(=N)N(c3ccccc3)N=C2N)cc1 | 0.601 | > 59 | 1.83 | 3.92 | 2.13 | > 89.1 | 2.14 | 33.6 | 0.993 | 46.2 | 0.587 | 25.8 | 0.445 | 7.4 | 0.352 | 32.6 |
| NCCn1c2c(c3ccccc3c1=O)C(=O)c1ccccc1-2 | 1.11 | 8.73 | 0.605 | 3.99 | 0.982 | 3.48 | 0.64 | 2.64 | 0.338 | 1.5 | 0.458 | 5.33 | – | 6.4 | 0.231 | 3.46 |
| CNc1ccc(N=Nc2cccc3ncccc23)cc1 | 15.3 | > 100 | 2.48 | > 100 | – | – | > 92.8 | > 100 | 7.43 | > 65.6 | 0.89 | > 100 | – | – | 19.3 | > 100 |
| COc1ccccc1-c1nccc(COc2ccccc2C[C@@H](Oc2ncnc3sc(-c4ccc(F)cc4)c(-c4ccc(OCCN5CCN(C)CC5)c(Cl)c4C)c23)C(=O)O)n1 | 1.96 | 4.81 | 1.86 | 4.33 | 3.55 | 14.6 | 3.01 | 11.2 | < 0.0104 | 0.285 | 6.12 | 17.5 | 2.09 | 5.84 | 3.01 | > 33.6 |
| Cc1nnc(N=Nc2c(O)[nH]c3ccccc23)[nH]c1=O | – | > 100 | – | – | – | > 100 | – | > 100 | – | > 100 | – | > 100 | – | > 100 | – | > 100 |
| O=c1c2ccccc2c(=O)c2c1sc1c(=O)c3ccc(O)cc3c(=O)c12 | – | – | – | – | 0.88 | 2.1 | 0.28 | 0.736 | 1.42 | 5.25 | 0.644 | 2.82 | – | – | 0.715 | > 100 |
| C/C(=N\O)[C@H]1CC[C@@]2(C)[C@@H]3CC[C@H]4C(C)(C)/C(=N/O)CC[C@@]45CC35CC[C@]12C (some centres undefined) | 2.33 | 6.9 | 5.75 | > 16.7 | – | – | 5.53 | 10.1 | 0.696 | 6.17 | – | – | 5.05 | > 16.7 | 3.42 | > 16.7 |
| O=C(O)C(Cc1c[nH]c2ccccc12)N1C(=O)c2ccccc2C1=O (centres undefined) | – | > 100 | – | > 100 | – | > 100 | – | > 100 | – | > 100 | – | > 100 | – | > 100 | – | – |
| CC[C@H](C)[C@H](NC(=O)N[C@@H](C)c1ccccc1)C(=O)N(C)[C@H](C[C@@H](OC(C)=O)c1nc(C(=O)N[C@@H](Cc2ccccc2)C[C@H](C)C(=O)OC)cs1)C(C)C | 27.5 | > 100 | 20.1 | 57.1 | 38.5 | > 100 | > 100 | > 100 | 8.74 | > 100 | 25.5 | > 100 | 26.6 | 95.5 | – | – |
| CC(=O)c1c(Nc2ccc(F)c(F)c2F)[nH]c2c(F)cc(F)cc2c1=O | 0.252 | 1.33 | – | – | 0.32 | > 100 | 0.338 | 10 | 0.206 | 0.72 | 0.123 | 0.742 | 0.331 | 11.2 | 0.347 | > 100 |
| O=C1Nc2ccc(Br)cc2C1=Nc1ccc(Cl)cc1 | – | > 100 | – | 4.71 | – | – | – | 79.1 | – | 26.5 | – | 28.9 | – | > 100 | – | 73.3 |
